This note sets out measurements from patent US9416115B2, “Fused heterocyclic compounds as ion channel modulators” (Gilead Sciences, Inc., priority 2013, dated 2016).

The target of one experiment is hNav1.1 (SCN1A) (Homo sapiens, UniProt P35498). As to the kind of experiment: Use-dependent inhibition of the CNS Nav1.1 sodium channel. Type of experiment: cell-based. Particulars: use-dependent block, 25 Hz, pulse 20, read-out: Nav1.1 UDB 25 Hz 10 uM. A digest of the protocol:
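HEK-293 cells stably expressing WT hNav1.1, automated whole-cell patch clamp at 23-25 °C with CsF-based internal and NaCl external solutions, pH 7.35. Compound applied twice, 200 s equilibration; block measured at pulse 20 of a 25 Hz train (0 mV, 20 ms) from −120 mV, as mean % inhibition versus compound-free.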

Experiment [1] concerns the target wild-type human cardiac sodium channel, hNav1.5 (Homo sapiens, UniProt Q14524). As to the kind of experiment: Late INa screening assay (QPatch whole cell patch clamp, Tefluthrin-induced late current). Particulars: HEK293 hNav1.5, percent block of late INa. The format is cell-based. A digest of the protocol:
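HEK293 cells stably expressing hNav1.5 without beta subunits were whole-cell patch clamped at 23-25 °C, stepping from −120 to −20 mV for 250 ms at 0.1 Hz. Late current (240–265 ms) was induced with 10 μM Tefluthrin, and compounds were added typically at 0.3 or 1 μM. Percent block was taken against 0 Na baseline with rundown correction.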

The structures appear in SMILES notation.

Chain of wild-type human cardiac sodium channel, hNav1.5 (Q14524 whole entry): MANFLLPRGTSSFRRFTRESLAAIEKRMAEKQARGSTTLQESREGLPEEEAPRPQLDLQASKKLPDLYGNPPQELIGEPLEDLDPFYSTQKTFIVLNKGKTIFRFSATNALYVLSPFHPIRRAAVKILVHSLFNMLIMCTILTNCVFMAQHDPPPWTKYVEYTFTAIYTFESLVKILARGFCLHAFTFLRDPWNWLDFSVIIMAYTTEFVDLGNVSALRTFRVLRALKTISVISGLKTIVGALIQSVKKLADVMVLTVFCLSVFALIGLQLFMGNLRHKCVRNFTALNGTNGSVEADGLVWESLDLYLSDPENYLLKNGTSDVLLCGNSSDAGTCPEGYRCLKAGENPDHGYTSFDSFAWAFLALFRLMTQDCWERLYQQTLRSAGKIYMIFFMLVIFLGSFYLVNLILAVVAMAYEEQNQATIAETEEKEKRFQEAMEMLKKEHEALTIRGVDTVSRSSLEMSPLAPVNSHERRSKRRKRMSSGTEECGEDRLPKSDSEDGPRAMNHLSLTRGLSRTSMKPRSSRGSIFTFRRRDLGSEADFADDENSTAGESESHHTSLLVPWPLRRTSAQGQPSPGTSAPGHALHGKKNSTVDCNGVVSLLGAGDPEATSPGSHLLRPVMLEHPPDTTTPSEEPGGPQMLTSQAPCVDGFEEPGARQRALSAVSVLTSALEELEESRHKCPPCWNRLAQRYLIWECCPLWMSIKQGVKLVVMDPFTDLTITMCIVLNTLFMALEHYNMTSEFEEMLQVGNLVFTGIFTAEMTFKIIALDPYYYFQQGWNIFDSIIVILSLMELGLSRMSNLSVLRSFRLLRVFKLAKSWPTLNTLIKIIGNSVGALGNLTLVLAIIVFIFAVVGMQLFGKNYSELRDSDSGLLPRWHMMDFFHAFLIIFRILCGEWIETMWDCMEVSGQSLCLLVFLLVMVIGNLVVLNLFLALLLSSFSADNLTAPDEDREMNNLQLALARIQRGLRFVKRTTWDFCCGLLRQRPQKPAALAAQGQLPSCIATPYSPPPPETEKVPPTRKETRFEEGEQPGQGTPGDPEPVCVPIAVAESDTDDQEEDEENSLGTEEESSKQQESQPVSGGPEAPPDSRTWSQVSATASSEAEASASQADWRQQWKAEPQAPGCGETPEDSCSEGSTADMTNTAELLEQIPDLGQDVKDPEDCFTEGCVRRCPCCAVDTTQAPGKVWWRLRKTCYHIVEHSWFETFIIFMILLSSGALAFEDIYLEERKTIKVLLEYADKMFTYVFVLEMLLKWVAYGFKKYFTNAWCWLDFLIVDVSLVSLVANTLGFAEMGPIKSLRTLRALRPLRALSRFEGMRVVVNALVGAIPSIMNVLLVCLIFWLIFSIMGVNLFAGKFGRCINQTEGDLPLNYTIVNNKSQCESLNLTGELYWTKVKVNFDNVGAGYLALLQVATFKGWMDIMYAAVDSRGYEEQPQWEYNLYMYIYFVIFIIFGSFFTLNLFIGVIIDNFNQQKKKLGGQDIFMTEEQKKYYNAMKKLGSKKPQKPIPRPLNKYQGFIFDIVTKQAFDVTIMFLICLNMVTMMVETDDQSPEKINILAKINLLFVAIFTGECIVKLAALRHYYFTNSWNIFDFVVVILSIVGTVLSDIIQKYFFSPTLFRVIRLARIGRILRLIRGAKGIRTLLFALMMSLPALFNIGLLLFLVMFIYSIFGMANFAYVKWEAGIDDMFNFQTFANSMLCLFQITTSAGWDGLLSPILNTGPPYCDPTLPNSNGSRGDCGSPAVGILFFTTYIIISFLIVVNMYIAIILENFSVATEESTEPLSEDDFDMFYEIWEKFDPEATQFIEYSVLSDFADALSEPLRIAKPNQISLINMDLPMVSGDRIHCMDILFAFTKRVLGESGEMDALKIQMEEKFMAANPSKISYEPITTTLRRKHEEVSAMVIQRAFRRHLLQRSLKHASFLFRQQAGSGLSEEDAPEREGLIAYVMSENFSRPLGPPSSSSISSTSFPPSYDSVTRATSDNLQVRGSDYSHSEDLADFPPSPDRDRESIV

For the molecule `CC(=O)N1CCC[C@H]1COc1noc2ccc(-c3ccc(OC(F)(F)F)cc3)cc12` [Example 109, (S)-1-(2-(((5-(4-(trifluoromethoxy)phenyl)benzo[d]isoxazol-3-yl)oxy)methyl)pyrrolidin-1-yl)ethan-1-one], the inhibition at 10 µM on hNav1.1 (SCN1A) amounted to 57%. In experiment [1], this molecule registered an inhibition at 0.3 µM of 25.3% and an inhibition at 1 µM of 65.7%.
`CC(C)(C)OC(=O)COc1noc2ccc(-c3ccc(OC(F)(F)F)cc3)cc12` [Example 157, tert-butyl 2-((5-(4-(trifluoromethoxy)phenyl)benzo[d]isoxazol-3-yl)oxy)acetate]: the inhibition at 10 µM on hNav1.1 (SCN1A) was below 5%. The same molecule registered an inhibition at 1 µM in experiment [1] of 36.9%.
Consider `C[C@@H](N)COc1noc2ccc(-c3ccc(OC(F)(F)F)cc3)cc12` [Example 117, (R)-1-((5-(4-(trifluoromethoxy)phenyl)benzo[d]isoxazol-3-yl)oxy)propan-2-amine], for which, at hNav1.1 (SCN1A), the inhibition at 10 µM turned out to be 80.9%. Moreover, in experiment [1], the inhibition at 0.3 µM came out at 39.4% and the inhibition at 1 µM turned out to be 78.1%.
With `FC(F)(F)Oc1ccc(-c2ccc3onc(-n4cncn4)c3c2)cc1` [Example 136, 3-(1H-1,2,4-triazol-1-yl)-5-(4-(trifluoromethoxy)phenyl)benzo[d]isoxazole], the inhibition at 10 µM at hNav1.1 (SCN1A) is below 5%. The inhibition at 1 µM in experiment [1] was 44.8%.
For the molecule `CC(C)(C)c1cn(-c2noc3ccc(-c4ccc(OC(F)(F)F)cc4)cc23)cn1` [Example 143, 3-(4-(tert-butyl)-1H-imidazol-1-yl)-5-(4-(trifluoromethoxy)phenyl)benzo[d]isoxazole], at hNav1.1 (SCN1A), the inhibition at 10 µM came out at 66.6%. In addition, in experiment [1], the inhibition at 0.3 µM turned out to be 35.9% and the inhibition at 1 µM came out at 60.3%.
Regarding `CCn1ccnc1COc1noc2ccc(-c3ccc(OC(F)(F)F)cc3)cc12` [Example 47, 3-((1-ethyl-1H-imidazol-2-yl)methoxy)-5-(4-(trifluoromethoxy)phenyl)benzo[d]isoxazole], at hNav1.1 (SCN1A), the inhibition at 10 µM turned out to be 55.5%. In experiment [1], the inhibition at 0.3 µM turned out to be 20% and the inhibition at 1 µM stood at 60.2%.
Turning to `Cc1cc2onc(OCc3ncccn3)c2cc1-c1ccc(C(F)(F)F)cc1F` [Example 28, 5-(2-fluoro-4-(trifluoromethyl)phenyl)-6-methyl-3-(pyrimidin-2-ylmethoxy)benzo[d]isoxazole], the inhibition at 10 µM on hNav1.1 (SCN1A) was below 5%. In experiment [1], this molecule came in with an inhibition at 0.3 µM of 26.7% and an inhibition at 1 µM of 54.4%.
On to `Cc1cc(OC(F)(F)F)ccc1-c1ccc2onc(OCc3ncccn3)c2c1` [Example 3, 5-(2-methyl-4-(trifluoromethoxy)phenyl)-3-(pyrimidin-2-ylmethoxy)benzo[d]isoxazole], for which the inhibition at 10 µM on hNav1.1 (SCN1A) is below 5%. The inhibition at 1 µM in experiment [1] was found to be 52.6%.
Turning to `Cc1cc(-c2ccc3onc(OCc4ncccn4)c3c2)ccc1OC(F)(F)F` [Example 7, 5-(3-methyl-4-(trifluoromethoxy)phenyl)-3-(pyrimidin-2-ylmethoxy)benzo[d]isoxazole], the inhibition at 10 µM on hNav1.1 (SCN1A) is below 5%. In addition, the inhibition at 1 µM in experiment [1] is 47.5%.
With `CC(C)(C)OC(=O)N1CCOC[C@H]1COc1noc2ccc(-c3ccc(OC(F)(F)F)cc3)cc12` [Example 111, tert-butyl(S)-3-(((5-(4-(trifluoromethoxy)phenyl)benzo[d]isoxazol-3-yl)oxy)methyl)morpholine-4-carboxylate], the inhibition at 10 µM on hNav1.1 (SCN1A) worked out at 50.4%. This molecule also yielded an inhibition at 1 µM in experiment [1] of 35.1%.
The like results for `Cc1cn(-c2noc3ccc(-c4ccc(OC(F)(F)F)cc4)cc23)cn1` [Example 139, 3-(4-methyl-1H-imidazol-1-yl)-5-(4-(trifluoromethoxy)phenyl)benzo[d]isoxazole] were, in that order, 8.8% and 41.2%.
